Experimental data taken from patent US9149038B2, “4-amino-6-(heterocyclic)picolinates and 6-amino-2-(heterocyclic)pyrimidine-4-carboxylates and their use as herbicides” (Dow AgroSciences LLC, priority 2013, dated 2015).
Where two headings read alike, the source gives them in different places.

Tests used:
[1] = test system: Key Broadleaf Weed and Crop Species; assay: Post-Emergent Test II: postemergent herbicidal activity, visual rating after 14 d (Table 7); assay type: in vivo; conditions: post-emergence, 336 h; for pest or weed control at 35 g/ha: 35 g ai/ha; for pest or weed control at 70 g/ha: 70 g ai/ha; for pest or weed control at 140 g/ha: 140 g ai/ha
Method in brief: (§1)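 Visual scoring at 14 d, 0 (no injury) to 100 (complete kill), relative to untreated plants. Postemergent overhead track-sprayer application, 187 L/ha, at a top rate plus serial ½×–1/16× rates, to plants grown 7–21 d at about 23–29° C day under a 15 h photoperiod, then subirrigated.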

[2] = test system: Key Grass and Sedge Weeds as well as Grass Crops; assay: Post-Emergent Test II: postemergent herbicidal activity, visual rating after 14 d (Table 8); assay type: in vivo; conditions: post-emergence, 336 h; for pest or weed control at 70 g/ha: 70 g ai/ha; for pest or weed control at 140 g/ha: 140 g ai/ha; for pest or weed control at 35 g/ha: 35 g ai/ha
Method in brief: as §1

[3] = lambsquarters (Chenopodium album), read-out: Visual Growth Reduction (%) 14 Days After Application CHEAL
[4] = oilseed rape, canola (Brassica napus), read-out: Visual Growth Reduction (%) 14 Days After Application BRSNN
[5] = redroot pigweed (Amaranthus retroflexus), read-out: Visual Growth Reduction (%) 14 Days After Application AMARE
[6] = sunflower (Helianthus annuus), read-out: Visual Growth Reduction (%) 14 Days After Application HELAN
[7] = velvetleaf (Abutilon theophrasti), read-out: Visual Growth Reduction (%) 14 Days After Application ABUTH
[8] = wild poinsettia (Euphorbia heterophylla), read-out: Visual Growth Reduction (%) 14 Days After Application EPHHL
[9] = barnyardgrass (Echinochloa crus-galli), read-out: Visual Growth Reduction (%) 14 Days After Application ECHCG
[10] = giant foxtail (Setaria faberi), read-out: Visual Growth Reduction (%) 14 Days After Application SETFA
[11] = maize, corn (Zea mays), read-out: Visual Growth Reduction (%) 14 Days After Application ZEAMX
[12] = rice (Oryza sativa), read-out: Visual Growth Reduction (%) 14 Days After Application ORYSA
[13] = wheat, spring (Triticum aestivum), read-out: Visual Growth Reduction (%) 14 Days After Application TRZAS
[14] = yellow nutsedge (Cyperus esculentus), read-out: Visual Growth Reduction (%) 14 Days After Application CYPES

Structure (SMILES) | pest or weed control at 35 g/ha [1, 3] | pest or weed control at 70 g/ha [1, 3] | pest or weed control at 140 g/ha [1, 3] | pest or weed control at 35 g/ha [1, 4] | pest or weed control at 70 g/ha [1, 4] | pest or weed control at 140 g/ha [1, 4] | pest or weed control at 35 g/ha [1, 5] | pest or weed control at 70 g/ha [1, 5] | pest or weed control at 140 g/ha [1, 5] | pest or weed control at 35 g/ha [1, 6] | pest or weed control at 70 g/ha [1, 6] | pest or weed control at 140 g/ha [1, 6] | pest or weed control at 35 g/ha [1, 7] | pest or weed control at 70 g/ha [1, 7] | pest or weed control at 140 g/ha [1, 7] | pest or weed control at 35 g/ha [1, 8] | pest or weed control at 70 g/ha [1, 8] | pest or weed control at 140 g/ha [1, 8] | pest or weed control at 70 g/ha [2, 9] | pest or weed control at 140 g/ha [2, 9] | also measured
COc1c(N)nc(-c2ccc3c(c2)OC(F)(F)O3)nc1C(=O)O [Compound 63] | 0 to 29% | 0 to 29% | 0 to 29% | 60 to 74% | 75 to 84% | 75 to 84% | 0 to 29% | 30 to 44% | 60 to 74% | 85 to 94% | 85 to 94% | 85 to 94% | 85 to 94% | 60 to 74% | 85 to 94% | 95 to 100% | 95 to 100% | 95 to 100% | 95 to 100% | 95 to 100% | pest or weed control at 35 g/ha [2, 10]: 75 to 84%; pest or weed control at 70 g/ha [2, 10]: 95 to 100%; pest or weed control at 140 g/ha [2, 10]: 95 to 100%; pest or weed control at 35 g/ha [2, 11]: 95 to 100%; pest or weed control at 70 g/ha [2, 11]: 95 to 100%; pest or weed control at 140 g/ha [2, 11]: 95 to 100%; pest or weed control at 35 g/ha [2, 12]: 0 to 29%; pest or weed control at 70 g/ha [2, 12]: 0 to 29%; pest or weed control at 140 g/ha [2, 12]: 0 to 29%; pest or weed control at 35 g/ha [2, 13]: 45 to 59%; pest or weed control at 70 g/ha [2, 13]: 45 to 59%; pest or weed control at 140 g/ha [2, 13]: 45 to 59%; pest or weed control at 35 g/ha [2, 14]: 95 to 100%; pest or weed control at 70 g/ha [2, 14]: 95 to 100%; pest or weed control at 140 g/ha [2, 14]: 95 to 100%
Cc1c(-c2ccc3c(c2)OC(F)(F)O3)nc(C(=O)O)c(Cl)c1N [Compound 52] | 0 to 29% | 0 to 29% | 0 to 29% | 0 to 29% | 0 to 29% | 0 to 29% | 0 to 29% | 0 to 29% | 0 to 29% | 85 to 94% | 95 to 100% | 95 to 100% | 0 to 29% | 0 to 29% | 0 to 29% | 0 to 29% | 0 to 29% | 0 to 29% | 60 to 74% | 75 to 84% | pest or weed control at 35 g/ha [2, 9]: 45 to 59%; pest or weed control at 35 g/ha [2, 10]: 0 to 29%; pest or weed control at 70 g/ha [2, 10]: 0 to 29%; pest or weed control at 140 g/ha [2, 10]: 45 to 59%; pest or weed control at 35 g/ha [2, 11]: 60 to 74%; pest or weed control at 70 g/ha [2, 11]: 60 to 74%; pest or weed control at 140 g/ha [2, 11]: 60 to 74%; pest or weed control at 35 g/ha [2, 12]: 0 to 29%; pest or weed control at 70 g/ha [2, 12]: 0 to 29%; pest or weed control at 140 g/ha [2, 12]: 0 to 29%; pest or weed control at 35 g/ha [2, 13]: 0 to 29%; pest or weed control at 70 g/ha [2, 13]: 30 to 44%; pest or weed control at 140 g/ha [2, 13]: 30 to 44%; pest or weed control at 35 g/ha [2, 14]: 0 to 29%; pest or weed control at 70 g/ha [2, 14]: 0 to 29%; pest or weed control at 140 g/ha [2, 14]: 0 to 29%
COc1c(C(=O)O)nc(-c2cc3c(cc2F)OC(F)(F)O3)c(F)c1N [Compound 23] | 0 to 29% | 0 to 29% | 0 to 29% | 0 to 29% | 75 to 84% | 85 to 94% | 0 to 29% | 0 to 29% | 0 to 29% | 75 to 84% | 85 to 94% | 85 to 94% | 0 to 29% | 0 to 29% | 0 to 29% | 95 to 100% | 95 to 100% | 95 to 100% | 95 to 100% | 95 to 100% | pest or weed control at 35 g/ha [2, 9]: 75 to 84%; pest or weed control at 35 g/ha [2, 10]: 60 to 74%; pest or weed control at 70 g/ha [2, 10]: 75 to 84%; pest or weed control at 140 g/ha [2, 10]: 75 to 84%; pest or weed control at 35 g/ha [2, 11]: 60 to 74%; pest or weed control at 70 g/ha [2, 11]: 60 to 74%; pest or weed control at 140 g/ha [2, 11]: 60 to 74%; pest or weed control at 35 g/ha [2, 12]: 0 to 29%; pest or weed control at 70 g/ha [2, 12]: 0 to 29%; pest or weed control at 140 g/ha [2, 12]: 0 to 29%; pest or weed control at 35 g/ha [2, 13]: 45 to 59%; pest or weed control at 70 g/ha [2, 13]: 45 to 59%; pest or weed control at 140 g/ha [2, 13]: 60 to 74%; pest or weed control at 35 g/ha [2, 14]: 0 to 29%; pest or weed control at 70 g/ha [2, 14]: 45 to 59%; pest or weed control at 140 g/ha [2, 14]: 45 to 59%
COC(=O)c1nc(-c2ccc(F)c3c2OC(F)(F)O3)c(F)c(N)c1Cl [Compound 76] | 85 to 94% | 85 to 94% | 95 to 100% | 60 to 74% | 75 to 84% | 85 to 94% | 95 to 100% | 95 to 100% | 95 to 100% | 85 to 94% | 85 to 94% | 85 to 94% | 60 to 74% | 75 to 84% | 85 to 94% | 0 to 29% | 0 to 29% | 0 to 29% | 0 to 29% | 0 to 29% | pest or weed control at 35 g/ha [2, 9]: 0 to 29%; pest or weed control at 35 g/ha [2, 10]: 0 to 29%; pest or weed control at 70 g/ha [2, 10]: 0 to 29%; pest or weed control at 140 g/ha [2, 10]: 0 to 29%; pest or weed control at 35 g/ha [2, 11]: 0 to 29%; pest or weed control at 70 g/ha [2, 11]: 0 to 29%; pest or weed control at 140 g/ha [2, 11]: 0 to 29%; pest or weed control at 35 g/ha [2, 12]: 0 to 29%; pest or weed control at 70 g/ha [2, 12]: 0 to 29%; pest or weed control at 140 g/ha [2, 12]: 0 to 29%; pest or weed control at 35 g/ha [2, 13]: 30 to 44%; pest or weed control at 70 g/ha [2, 13]: 45 to 59%; pest or weed control at 140 g/ha [2, 13]: 60 to 74%; pest or weed control at 35 g/ha [2, 14]: 0 to 29%; pest or weed control at 70 g/ha [2, 14]: 30 to 44%; pest or weed control at 140 g/ha [2, 14]: 30 to 44%
